Converted amounts (≈) assume the structure as drawn. Where two headings read alike, the source gives them in different places.
Columns and labels:
Assay type in all cases: cell-based
[1] = tested on: Staphylococcus aureus 1086; experiment: MIC by broth microdilution (CAMHB, NCCLS); settings: code B: Staphylococcus aureus 1086
Method: (§1) MIC values for non-anaerobes were obtained by broth microdilution using CAMHB (BBL) according to NCCLS guidelines (National Committee for Clinical Laboratory Standards. Methods for dilution antimicrobial susceptibility tests for bacteria that grow aerobically, 5th ed. Approved standard M7-A6. NCCLS, Wayne, Pa., 2003). Drugs were dissolved in DMSO prior to dispensing into 96-well microtitre plates; the concentration of DMSO in assay wells never exceeded 2% (v/v). CAMHB was supplemented with 5% (v/v) horse serum (Sigma, cat. no. H-1270) in lieu of laked horse blood for cultivation of Streptococcus pneumoniae, and with 5% (v/v) Fildes enrichment (BBL, cat. no. 220810) supernate in lieu of Haemophilus Test Medium and additives for cultivation of Haemophilus influenzae (Pankuch G A, Hoellman D B, Lin G, Bajaksouzian S, Jacobs M R, Appelbaum P C. Activity of HMR 3647 compared to those of five agents against Haemophilus influenzae and Moraxella catarrhalis by MIC determination and time-kill assay. Antimicrob. Agents Chemother. November 1998; 42(11): 3032-4). Activities expressed as the minimal inhibitory concentrations (MICs) (μg/ml) are given in the following Table 3, and the microorganisms used for testing are listed in Table 2 below.

[2] = tested on: Escherichia coli ATCC 25922; experiment: MIC by broth microdilution (CAMHB, NCCLS); settings: code C: Escherichia coli ATCC 25922
Method: as §1

[3] = tested on: Staphylococcus aureus ATCC 29213; experiment: MIC by broth microdilution (CAMHB, NCCLS); settings: code A: Staphylococcus aureus ATCC 29213
Method: as §1

[4] = tested on: Human neutrophils; experiment: Modulation of neutrophil elastase production; settings: test compound 50 μM; fMLP 0.1 μM, cytochalasin B 5 mg/L; blood from 3 donors
Text: The neutrophil granulocyte is a key element of the inflammatory process. The neutrophils migrate to the site of inflammation and can be activated to release toxic products, including proteolytic enzymes such as elastase. […] Elastase is a major secreted product of activated neutrophils and is a major contributor to the destruction of tissue in inflammatory disease. Several bioassays based on the repression of secretion of elastase, have been described and used for the detection of anti-inflammatory products (Johansson, […]. Nat. Prod. 65: 32-41). […] The neutrophils are activated by addition of the bacterial product N-formyl methionyl-leucyl-phenylalanine (fMLP) and cytochalasin B, a stimulator of secretion. The amount of elastase secreted is determined by measuring the reaction of elastase with the chromogenic substrate succinyl-alanyl-alanyl-valyl-nitroanilide ([…]), which generates 4-nitroaniline after cleavage by elastase. […] Human neutrophils are isolated by applying whole heparinized blood to a Histopaque column and collecting the granulocytes by centrifugation. […] The total volume of the reaction mixture is 0.8 mL and concentrations specified are the final concentrations in the mixture. […] Neutrophil preparations from blood from 3 different donors were used in parallel. All samples were measured in duplicate. Results are given as % repression of activation of neutrophils in the following Table 5.

[5] = tested on: Haemophilus influenzae 12214; experiment: MIC by broth microdilution (CAMHB + 5% Fildes enrichment, NCCLS)
Method: as §1

[6] = tested on: Haemophilus influenzae QK50; experiment: as above
Method: as §1

[7] = tested on: Propionibacterium acnes SW101T; experiment: MIC by anaerobic broth microdilution (WCB, NCCLS); settings: code K: Propionibacterium acnes SW101T, 35-37° C., 48 h
Method: (§2) MIC values towards strains of propionibacteria were obtained by broth microdilution using WCB (Anaerobe Broth MIC, Difco) according to NCCLS guidelines (National Committee for Clinical Laboratory Standards. Methods for anti-microbial susceptibility testing of anaerobic bacteria, 5th ed.; approved standard. NCCLS publication no. M11-A5. NCCLS, Wayne, Pa., 2001). Microtitre plates were loaded into 7-L GENbox anaerobic incubation jars (BioMérieux, cat. no. 96 128) fitted with anaerobic atmosphere generators (BioMérieux, cat. no. 96 124) and a Dry Anaerobic Indicator Strip (BBL, cat. no. 271051). Under these conditions, an O2 concentration <0.1% was achieved by 2.5 h, and a CO2 concentration >15% by 24 h. MIC values were read after incubation at 35-37° C. for 48 h (Table 3).

[8] = tested on: Propionibacterium acnes EG7NS; experiment: MIC by anaerobic broth microdilution (WCB, NCCLS); settings: 48 h
Method: as §2

[9] = tested on: Streptococcus pneumoniae SL199T; experiment: MIC by broth microdilution (CAMHB + 5% horse serum, NCCLS); settings: code E: Streptococcus pneumoniae SL199T
Method: as §1

[10] = tested on: Streptococcus pneumoniae 1/1; experiment: as above; settings: code D: Streptococcus pneumoniae 1/1
Method: as §1

[11] = tested on: Streptococcus pneumoniae Tupelo; experiment: as above; settings: code F: Streptococcus pneumoniae Tupelo
Method: as §1

[12] = code G: Haemophilus influenzae 12214, read-out: MIC
[13] = code H: Haemophilus influenzae QK50, read-out: MIC
[14] = Cutibacterium acnes, read-out: MIC
[15] = Cutibacterium acnes, code I: Propionibacterium acnes EG7NS, anaerobic, 35-37° C., read-out: MIC
[16] = code G: Haemophilus influenzae 12214
[17] = code H: Haemophilus influenzae QK50
[18] = code I: Propionibacterium acnes EG7NS, anaerobic, 35-37° C.

| MIC [5, 12] [µg/mL] | MIC [6, 13] [µg/mL] | MIC [8, 15] [µg/mL] | MIC [1] | MIC [2] | MIC [3] [µg/mL] | MIC [5, 16] [µg/mL] | MIC [6, 17] [µg/mL] | MIC [7] [µg/mL] | MIC [8, 18] | MIC [9] [µg/mL] | MIC [10] | SMILES | MIC ([1]; read-out: MIC) [µg/mL] | MIC ([2]; ATCC25922, read-out: MIC) [µg/mL] | MIC ([3]; ATCC29213, read-out: MIC) [µg/mL] | Average repression of activation (%) [4] [%] | MIC [7, 14] [µg/mL] | MIC ([9]; read-out: MIC) [µg/mL] | MIC ([10]; read-out: MIC) [µg/mL] | MIC ([11]; read-out: MIC) [µg/mL] | also measured |
| --- | --- | --- | --- | --- | --- | --- | --- | --- | --- | --- | --- | --- | --- | --- | --- | --- | --- | --- | --- | --- | --- |
|  |  |  | 16 µg/mL (≈ 16.4 µM) | >32 µg/mL | 2 (≈ 2.04 µM) | 8 | 16 | 8 (≈ 8.18 µM) | 0.125 µg/mL (≈ 0.128 µM) | 4 | 0.25 µg/mL | CC[C@H]1OC(=O)[C@H](C)[C@@H](O[C@H]2C[C@@](C)(OC)[C@@H](O)[C@H](C)O2)[C@H](C)[C@@H](O[C@@H]2O[C@H](C)C[C@H](N(C)C)[C@H]2O)[C@](C)(OC)C[C@@H](C)C(=O)[C@H](C)[C@H]2[C@H](SCC(=O)c3csc4ccccc34)C(=O)O[C@@]21C [Example 28] |  |  |  |  |  |  |  |  | MIC [11]: 4 µg/mL |
|  |  |  | >32 µg/mL | 32 µg/mL (≈ 33.1 µM) | 1 (≈ 1.03 µM) | 4 | 4 | >32 | <=0.06 μg/ml | 4 | <=0.06 μg/ml | CC[C@H]1OC(=O)[C@H](C)[C@@H](O[C@H]2C[C@@](C)(OC)[C@@H](O)[C@H](C)O2)[C@H](C)[C@@H](O[C@@H]2O[C@H](C)C[C@H](N(C)C)[C@H]2O)[C@](C)(OC)C[C@@H](C)C(=O)[C@H](C)[C@H]2[C@H](SCC(=O)c3ccc4c(c3)OCO4)C(=O)O[C@@]21C [Example 29] |  |  |  |  |  |  |  |  | MIC [11]: 4 µg/mL |
| 2 | 1 | ≤ 0.06 |  |  |  |  |  |  |  |  |  | CC[C@H]1OC(=O)[C@H](C)C(=O)[C@H](C)[C@@H](O[C@@H]2O[C@H](C)C[C@H](N(C)C)[C@H]2O)[C@](C)(OC)C[C@@H](C)C(=O)[C@H](C)[C@H]2N(CCCCn3cnc(-c4cccnc4)c3)C(=O)O[C@]12C [Telithromycin, reference compound] | 0.25 (≈ 0.308 µM) | > 32 | 0.25 (≈ 0.308 µM) |  | 16 (≈ 19.7 µM) | ≤ 0.06 | ≤ 0.06 | 0.5 |  |

The remaining lines, values behind:

| SMILES | MIC [5, 12] [µg/mL] | MIC [6, 13] [µg/mL] | MIC [8, 15] [µg/mL] | MIC [1] | MIC [2] | MIC [3] [µg/mL] | MIC [5, 16] [µg/mL] | MIC [6, 17] [µg/mL] | MIC [7] [µg/mL] | MIC [8, 18] | MIC [9] [µg/mL] | MIC [10] | MIC ([1]; read-out: MIC) [µg/mL] | MIC ([2]; ATCC25922, read-out: MIC) [µg/mL] | MIC ([3]; ATCC29213, read-out: MIC) [µg/mL] | Average repression of activation (%) [4] [%] | MIC [7, 14] [µg/mL] | MIC ([9]; read-out: MIC) [µg/mL] | MIC ([10]; read-out: MIC) [µg/mL] | MIC ([11]; read-out: MIC) [µg/mL] | also measured |
| --- | --- | --- | --- | --- | --- | --- | --- | --- | --- | --- | --- | --- | --- | --- | --- | --- | --- | --- | --- | --- | --- |
| CC[C@H]1OC(=O)[C@H](C)[C@@H](O[C@H]2C[C@@](C)(OC)[C@@H](O)[C@H](C)O2)[C@H](C)[C@@H](O[C@@H]2O[C@H](C)C[C@H](N(C)C)[C@H]2O)[C@](C)(O)C[C@@H](C)C(=O)[C@H](C)[C@@H](O)[C@]1(C)O [Erythromycin, reference compound] | 4 | 2 |  |  |  |  |  |  |  |  |  |  | > 32 | > 32 | 0.5 (≈ 0.681 µM) | 5 ± 0.30 | > 32 | > 32 | ≤ 0.06 | 8 | MIC ([8]; Cutibacterium acnes, EG7NS): 0.125 µg/mL (≈ 0.17 µM) |
| CC[C@H]1OC(=O)[C@H](C)[C@@H](O[C@H]2C[C@@](C)(OC)[C@@H](O)[C@H](C)O2)[C@H](C)[C@@H](O[C@@H]2O[C@H](C)C[C@H](N(C)C)[C@H]2O)[C@](C)(OC)C[C@@H](C)C(=O)[C@H](C)[C@H]2[C@H](SCCn3cnc4c(N)ncnc43)C(=O)O[C@@]21C [Example 1, (3S, 3aR, 4R, 6R, 8R, 9R, 10S, 11S, 12R, 15R, 15aS)-3-[[2-[6-amino-9H-purin-9-yl]ethyl]thio]-11-[[2,6-dideoxy-3-C-methyl-3-O-methyl-α-L-ribo-hexopyranosyl]oxy]-15-ethyldecahydro-8-methoxy-4,6,8,10,12,15a-hexamethyl-9-[[3,4,6-trideoxy-3-(dimethylamino)-β-D-xylo-hexopyranosyl]oxy]-2H-furo [2,3-c]oxacyclotetradecin-2,5,13 (3H,6H)-trione] | 1 | 0.5 | ≤ 0.06 |  |  |  |  |  |  |  |  |  | ≥ 32 | ≥ 32 | 1 (≈ 1.04 µM) | 19 ± 0.6 | 1 (≈ 1.04 µM) | 0.125 | ≤ 0.06 | 0.5 |  |
| CC[C@H]1OC(=O)[C@H](C)[C@@H](O[C@H]2C[C@@](C)(OC)[C@@H](O)[C@H](C)O2)[C@H](C)[C@@H](O[C@@H]2O[C@H](C)C[C@H](N(C)C)[C@H]2O)[C@](C)(OC)C[C@@H](C)C(=O)[C@H](C)[C@H]2[C@H](SCCn3cnc4cccnc43)C(=O)O[C@@]21C [Example 4, (3S, 3aR, 4R, 6R, 8R, 9R, 10S, 11S, 12R, 15R, 15aS)-11-[[2,6-dideoxy-3-C-methyl-3-O-methyl-α-L-ribo-hexopyranosyl]oxy]-15-ethyldecahydro-8-methoxy-4,6,8,10,12,15a-hexamethyl-3-[[2-[3H-imidazo[4,5-b]pyridin-3-yl]ethyl]thio]-9-[[3,4,6-trideoxy-3-(dimethylamino)-β-D-xylo-hexopyranosyl]oxy]-2H-furo [2,3-c] oxacyclotetradecin-2,5,13 (3H,6H)-trione] |  |  | 0.125 (≈ 0.132 µM) |  |  |  |  |  |  |  |  |  | ≥ 32 | 32 (≈ 33.7 µM) | 1 (≈ 1.05 µM) | 31 ± 2.4 | 4 (≈ 4.21 µM) | 0.5 | ≤ 0.06 | 0.5 | MIC ([5]; Haemophilus influenzae, 12214): 2 µg/mL; MIC ([6]; Haemophilus influenzae, QK50): 2 µg/mL |
| CC[C@H]1OC(=O)[C@H](C)[C@@H](O[C@H]2C[C@@](C)(OC)[C@@H](O)[C@H](C)O2)[C@H](C)[C@@H](O[C@@H]2O[C@H](C)C[C@H](N(C)C)[C@H]2O)[C@](C)(OC)C[C@@H](C)C(=O)[C@H](C)[C@H]2[C@H](SCCn3cnc4c(N)nc(N)nc43)C(=O)O[C@@]21C [Example 11] |  |  |  | >=32 μg/ml | >=32 μg/ml | 8 (≈ 8.16 µM) | 2 | 2 | 2 (≈ 2.04 µM) | <=0.06 μg/ml | 0.125 | <=0.06 μg/ml |  |  |  | 20 ± 0.97 |  |  |  |  | MIC [11]: 1 µg/mL |

— patent publication US7524823B2, “Macrolides” (Basilea Pharmaceutica AG, priority 2005, dated 2009)
